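1) Cells in 96-well plates. 2) Compound, 48 h, 5 concentrations. 3) Linear interpolation between surrounding doses. 4) Unreached endpoint = highest concentration. GI50 is the concentration that inhibits growth by half. At the TGI there is no net growth.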
Key:
Assay in all cases: growth of human tumour cells (NCI), 48 h
[1] = tested on: SK-OV-3 ovarian
[2] = tested on: TK-10 renal
[3] = tested on: A498 renal
[4] = tested on: HOP-62 NSCLC
[5] = tested on: HL-60(TB) leukemia
[6] = tested on: MDA-MB-231 breast
[7] = tested on: HCT-15 colon
[8] = tested on: COLO 205 colon
[9] = tested on: HT29 colon
[10] = tested on: HOP-92 NSCLC
[11] = tested on: SN12C renal
[12] = tested on: A549 NSCLC
[13] = tested on: MDA-MB-435
[14] = tested on: M14 melanoma
[15] = tested on: UACC-257 melanoma
[16] = tested on: SF-539 CNS
[17] = tested on: UACC-62 melanoma
[18] = tested on: T-47D breast
[19] = tested on: KM12 colon
[20] = tested on: SF-295 CNS
[21] = tested on: SF-268 CNS
[22] = tested on: SK-MEL-5 melanoma
[23] = tested on: BT-549 breast
[24] = tested on: OVCAR-3 ovarian
[25] = tested on: LOX IMVI melanoma
[26] = tested on: HS 578T breast
[27] = tested on: SNB-19 CNS
[28] = tested on: PC-3 prostate
[29] = tested on: MOLT-4 leukemia
[30] = tested on: CCRF-CEM leukemia
[31] = tested on: HCT-116 colon
[32] = tested on: HCC-2998 colon
[33] = tested on: SK-MEL-2 melanoma
[34] = tested on: SW-620 colon
[35] = tested on: NCI-H522 lung
[36] = tested on: DU-145 prostate
[37] = tested on: RPMI-8226 leukemia
[38] = tested on: IGROV1 ovarian
[39] = tested on: SR leukemia
[40] = tested on: MCF7 breast
[41] = tested on: EKVX NSCLC
[42] = tested on: NCI-H23 lung

## CCN(CC)CCNc1ccc([N+](=O)[O-])c2sc3cc(Cl)ccc3c(=O)c12
[1]
  GI50: 3.33 µM
  TGI: 96.5 µM
[2]
  GI50: 2970 nM
  TGI: > 100 µM
[3]
  GI50: 5.31 µM
  TGI: 25.6 µM
[4]
  GI50: 2700 nM
  TGI: > 100 µM
[5]
  GI50: 11.5 µM
  TGI: > 100 µM
[6]
  GI50: 1740 nM
  TGI: 5.01 µM
[7]
  GI50: 2700 nM
  TGI: > 100 µM
[8]
  GI50: 3.93 µM
  TGI: > 100 µM
[9]
  GI50: 1700 nM
  TGI: > 100 µM
[10]
  GI50: 2150 nM
  TGI: 30.3 µM
[11]
  GI50: 2050 nM
  TGI: 6.58 µM
[12]
  GI50: 2890 nM
  TGI: > 100 µM
[13]
  GI50: 2830 nM
  TGI: > 100 µM
[14]
  GI50: 3.1 µM
  TGI: > 100 µM
[15]
  GI50: 2080 nM
  TGI: 4.96 µM
[16]
  GI50: 2050 nM
  TGI: 5.25 µM
[17]
  GI50: 3.11 µM
  TGI: > 100 µM
[18]
  GI50: 29.8 µM
  TGI: > 100 µM
[19]
  GI50: 6.77 µM
  TGI: 53.6 µM
[20]
  GI50: 6.27 µM
  TGI: > 100 µM
[21]
  GI50: 9.88 µM
  TGI: 46.9 µM
[22]
  GI50: 3.59 µM
  TGI: > 100 µM
[23]
  GI50: 17.7 µM
  TGI: > 100 µM
[24]
  GI50: 4.62 µM
  TGI: 32.3 µM
[25]
  GI50: 2800 nM
  TGI: > 100 µM
[26]
  GI50: 4.41 µM
  TGI: 37.1 µM
[27]
  GI50: 2770 nM
  TGI: > 100 µM
[28]
  GI50: 2650 nM
  TGI: > 100 µM
[29]
  GI50: 2340 nM
  TGI: > 100 µM
[30]
  GI50: 3.17 µM
  TGI: > 100 µM
[31]
  GI50: 3.24 µM
  TGI: > 100 µM
[32]
  GI50: 11.1 µM
  TGI: > 100 µM
[33]
  GI50: 21.8 µM
  TGI: > 100 µM
[34]
  GI50: 2330 nM
  TGI: 27.8 µM
[35]
  GI50: 9.01 µM
  TGI: > 100 µM
[36]
  GI50: 7.68 µM
  TGI: 25.1 µM
[37]
  GI50: 2320 nM
  TGI: 6.55 µM
[38]
  GI50: 2050 nM
  TGI: 5.23 µM
[39]
  GI50: 4.7 µM
  TGI: > 100 µM
[40]
  GI50: 3.28 µM
  TGI: > 100 µM
[41]
  GI50: 10.7 µM
  TGI: > 100 µM
[42]
  GI50: 13.9 µM
  TGI: > 100 µM

Source: PubChem BioAssay (NCI)
